From US9624195B2, “Isoquinoline compounds” (Gilead Sciences, Inc., priority 2014, dated 2017) come the findings set out here.

Common to all, as to assay type: cell-based
For series [1], the system named is HIV-1 reverse transcriptase mutant K103N. Nature of the series: High throughput cytopathic effect assay in MT-4 cells, HIV-1 RT mutant K103N. The note with it: for EC50: Human immunodeficiency virus 1, MT4, read-out: MT4 EC50 (nM) against K103N; for FC against mutant K103N: fold change of EC50, K103N versus w.t. assay 2. An excerpt: (§1) Compounds were screened in a miniaturized, high throughput cytopathic effect assay for activity against HIV-1 HBX2 (wild type) and HIV-1 reverse transcriptase mutants K103N and Y181C. In Tables 1 and 2 below, “w.t.” refers to results of the tested compounds run with the wildtype 1 and “w.t. assay 2” refers results of the tested compounds run with the wildtype on the same day as the testing of the compounds with the mutants. Thus, “w.t. assay 2” was run under the same conditions as the testing of the compounds with the mutants and provides a direct comparison with the results from the testing with the mutants.
(§2) Ten-point serial dilutions of compounds with half-log step size were generated in DMSO. AZT (5 μM) was used as the positive control and DMSO as the negative control. The Echo acoustic dispenser was used to deliver 200 nL of serially diluted compound into sterile 384 well tissue culture assay plates. Two million MT-4 cells were incubated with each of the 3 viruses at MOI of 0.0005 in separate 1 mL infection tubes for 1 hour at 37° C. The cells were diluted in cell culture medium (RPMI+10% FBS) to 50,000 cells/mL. The infected cells were added to 384 well assay plates containing serially dilute compounds. Assay plates were incubated for 5 days in a humidified incubator set at 37° C. and 5% CO2. To measure the cytopathic effect of HIV, 40 μL Cell TiterGlo was added to each well and the resulting luminescence signal is read with the Envision plate reader (Perkin Elmer). Data were normalized to positive and negative controls in each plate and expressed as % CPE Protection. EC50 values were defined as the compound concentration that caused a 50% […] in luminescence signal, and were calculated by non-linear regression using Pipeline Pilot software by applying a four parameter fit equation (Accelrys, San Diego, Calif.).
(§3) The high-throughput screening was also run for nevirapine (“NPV”), rilpivirine (“RPV”), and efavirenz (“EFV”). Nevirapine was obtained from Toronto Research Chemicals, Inc. (Toronto, Canada; Catalogue #N391275). Rilpivirine was obtained from Key Organics Ltd. (Camelford, Cornwall, United Kingdom; Catalogue #KE-0036). Efavirenz was obtained from Toronto Research Chemicals, Inc. (Toronto, Canada; Catalogue #E425000). Further details and background can be found in Janssen et al, J. Med. Chem, 2005, 48, 1901-1909; Das et al., Proc. Nat. Acad. Sci., 2008, vol., 105, no. 5, 1466-1471; and Kuroda et al., Nature Chemistry, 2013, DOI: 10.1038/NCHEM.1559.
A general note: Protection from cytopathic effect is a common read-out in antiviral testing.

In series [2] the test system is HIV-1 reverse transcriptase mutant Y181C. Nature of the series: High throughput cytopathic effect assay in MT-4 cells, HIV-1 RT mutant Y181C. The note with it: for EC50: Human immunodeficiency virus 1, MT4, read-out: MT4 EC50 (nM) against Y181C; for FC against mutant Y181C: fold change of EC50, Y181C versus w.t. assay 2.
Text: as §1, §2, §3

The test system of a further series is HIV-1 HBX2 (wild type). Nature of the series: High throughput cytopathic effect assay in MT-4 cells, HIV-1 wild type.
Text: as §1, §2, §3

The target in the next series is T1, hERG channels (Homo sapiens, UniProt Q12809).
T1 construct: host or cells: CHO cells stably expressing hERG
T1 sequence (Q12809 whole entry): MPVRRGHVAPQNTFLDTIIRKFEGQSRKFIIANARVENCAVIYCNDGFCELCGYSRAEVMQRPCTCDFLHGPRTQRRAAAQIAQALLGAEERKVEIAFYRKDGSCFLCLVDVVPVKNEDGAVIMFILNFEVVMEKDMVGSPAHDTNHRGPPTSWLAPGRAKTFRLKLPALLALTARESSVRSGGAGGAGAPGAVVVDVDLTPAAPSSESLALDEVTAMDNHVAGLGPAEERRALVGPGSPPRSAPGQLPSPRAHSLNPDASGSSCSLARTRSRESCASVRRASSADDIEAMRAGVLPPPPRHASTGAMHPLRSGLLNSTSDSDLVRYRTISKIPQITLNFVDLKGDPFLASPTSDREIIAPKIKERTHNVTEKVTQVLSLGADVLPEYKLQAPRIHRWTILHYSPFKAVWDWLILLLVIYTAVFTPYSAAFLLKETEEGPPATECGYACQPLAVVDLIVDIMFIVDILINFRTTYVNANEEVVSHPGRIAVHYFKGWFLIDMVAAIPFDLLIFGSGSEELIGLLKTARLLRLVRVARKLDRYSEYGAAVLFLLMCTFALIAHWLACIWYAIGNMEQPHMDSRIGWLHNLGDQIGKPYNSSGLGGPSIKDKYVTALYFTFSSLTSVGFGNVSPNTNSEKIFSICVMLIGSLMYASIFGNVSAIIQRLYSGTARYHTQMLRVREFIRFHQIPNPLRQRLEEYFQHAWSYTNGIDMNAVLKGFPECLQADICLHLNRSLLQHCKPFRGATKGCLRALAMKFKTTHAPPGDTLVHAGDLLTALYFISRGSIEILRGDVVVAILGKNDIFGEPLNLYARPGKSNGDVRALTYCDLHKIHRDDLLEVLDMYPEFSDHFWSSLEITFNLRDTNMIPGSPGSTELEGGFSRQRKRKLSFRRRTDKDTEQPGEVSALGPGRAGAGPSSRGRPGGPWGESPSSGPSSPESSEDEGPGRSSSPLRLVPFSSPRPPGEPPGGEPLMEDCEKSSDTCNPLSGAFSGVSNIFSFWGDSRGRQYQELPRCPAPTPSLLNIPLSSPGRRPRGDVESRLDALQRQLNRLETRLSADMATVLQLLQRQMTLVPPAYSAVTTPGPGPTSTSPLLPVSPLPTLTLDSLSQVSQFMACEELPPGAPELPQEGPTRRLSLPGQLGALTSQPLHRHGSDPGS
Nature of the series: hERG assay, whole cell recordings in CHO cells stably expressing hERG channels. Particulars: tail current, whole cell patch clamp. How it is done:
AVIVA's CHO cell line, which stably expresses hERG channels, was used for the study. Cells were cultured in DMEM/F12 containing 10% FBS, 1% penicillin/streptomycin and 500 μg/ml G418. Before testing, cells were harvested using Accumax (Innovative Cell Technologies).
For electrophysiological recordings, the following solutions were used:
External Solution: 2 mM CaCl2; 2 mM MgCl2; 4 mM KCl; 150 mM NaCl; 10 mM Glucose; 10 mM HEPES; 305-315 mOsm; pH 7.4 (adjusted with 5M NaOH.)
Internal Solution: 140 mM KCl; 10 mM MgCl2; 6 mM EGTA; 5 mM HEPES-Na; 5 mM ATP-Mg; 295-305 mOsm; pH 7.25 (adjusted with 1M KOH).
Whole cell recordings were performed using PX 7000A (Axon Instruments) with AVIVA's SealChip™ technology. Cells were voltage clamped at a holding potential of −80 mV. The hERG current was then activated by a depolarizing step to −50 mV for 300 ms. This first step at −50 mV was used as a baseline for measuring peak amplitude of the tail current. Next, a voltage step to +20 mV was applied for 5 s to activate the channels. Finally, a step back to −50 mV for 5 s removed activation and the deactivating tail current was recorded.
All test articles were prepared from 10 mM DMSO stock solutions. […]
After achieving whole cell configuration, cells were monitored for 90 s to assess stability and then washed with External Solution for 66 s. […]
In general terms: The hERG channel carries a current that helps repolarise heart muscle cells.

[3] abbreviates: Human immunodeficiency virus 1, MT4, 120 h, MT-4 cells, HIV-1 wild type, 5 days, CPE protection (Cell TiterGlo), read-out: MT4 EC50 (nM) against w.t.
[4] abbreviates: Human immunodeficiency virus 1, MT4, read-out: MT4 EC50 (nM) against w.t. assay 2.

Where two headings read alike, the source gives them in different places.

As to `O=C1Nc2ccc(Cl)cc2[C@@](C#CC2CC2)(C(F)(F)F)O1` [Efavirenz, efavirenz, reference compound], the EC50 – broadly, the concentration needed to bring the measured effect to its halfway point – in series [1] amounted to 46.4 nM; in series [2], 3.8 nM; with HIV-1 HBX2 (wild type) (setting [3]), 1.3 nM; in the series on HIV-1 HBX2 (wild type) (setting [4]) it was 1.6 nM. Besides, the “FC against mutant K103N” value in series [1] is on record as 28.9. The “FC against mutant Y181C” value in series [2] was determined as 2.3.

With `Cc1cc(/C=C/C#N)cc(C)c1-c1cccc2cnc(Nc3ccc(C#N)cc3)cc12` [Compound 6, (E)-4-((5-(4-(2-Cyanovinyl)-2,6-dimethylphenyl)isoquinolin-3-yl)amino)benzonitrile], the EC50 in the series with HIV-1 HBX2 (wild type) (setting [3]) turned out to be 12.9 nM.

For `Cc1cc(/C=C/C#N)cc(C)c1-c1cccc2cnc(Nc3ccc(C#N)cn3)cc12` [Compound 5, (E)-6-((5-(4-(2-Cyanovinyl)-2,6-dimethylphenyl)isoquinolin-3-yl)amino)nicotinonitrile], the EC50 in series [1] amounted to 4.7 nM; in series [2], 12 nM; with HIV-1 HBX2 (wild type) (setting [3]), 4.2 nM; in the series with HIV-1 HBX2 (wild type) (setting [4]) it was 4.7 nM. Further, the “FC against mutant K103N” value in series [1] is listed as 1.0. For the same compound, the “FC against mutant Y181C” value in series [2] is 2.5.

For the compound `Cc1cc(/C=C/C#N)cc(C)c1Nc1ccnc(Nc2ccc(C#N)cc2)n1` [Rilpivirine, rilpivirine, reference compound], the hERG at hERG channels was 0.5 µM. In addition, the EC50 in series [1] is 1.5 nM; in series [2] it was 3.8 nM; with HIV-1 HBX2 (wild type) (setting [3]) it was 0.9 nM; in the series on HIV-1 HBX2 (wild type) (setting [4]), 1.3 nM. Moreover, the “FC against mutant K103N” value in series [1] is given as 1.2. In addition, the “FC against mutant Y181C” value in series [2] is 3.1.

Turning to `Cc1cc(/C=C/C#N)cc(C)c1-c1cccc2c(N)nc(Nc3cnc(C#N)cn3)cc12` [Compound 2, (E)-5-((1-Amino-5-(4-(2-cyanovinyl)-2,6-dimethylphenyl)isoquinolin-3-yl)amino)pyrazine-2-carbonitrile], the EC50 was 29.7 nM in series [1], 109 nM in series [2], 14.4 nM in the series on HIV-1 HBX2 (wild type) (setting [3]) and 20.2 nM with HIV-1 HBX2 (wild type) (setting [4]). In addition, the “FC against mutant K103N” value in series [1] was found to be 1.5. The “FC against mutant Y181C” value in series [2] stood at 5.4.

Consider `Cc1cc(/C=C/C#N)cc(C)c1-c1cccc2c(N)nc(Nc3ccc(C#N)cn3)cc12` [Compound 4, (E)-6-((1-Amino-5-(4-(2-cyanovinyl)-2,6-dimethylphenyl)isoquinolin-3-yl)amino)nicotinonitrile], for which the hERG at hERG channels came out at 3 µM. For the same compound, the EC50 came out at 3.7 nM in series [1], 12 nM in series [2], 2.8 nM with HIV-1 HBX2 (wild type) (setting [3]) and 3.6 nM with HIV-1 HBX2 (wild type) (setting [4]). For the same compound, in series [1], the “FC against mutant K103N” value is 1.0. Further, in series [2], the “FC against mutant Y181C” value is 3.4.

`Cc1ccnc2c1NC(=O)c1cccnc1N2C1CC1` [Nevirapine, nevirapine, reference compound]: the EC50 in the series with HIV-1 HBX2 (wild type) (setting [3]) amounted to 65 nM.

For `Cc1cc(/C=C/C#N)cc(C)c1-c1cccc2c(N)nc(Nc3ccc(C#N)nn3)cc12` [Compound 3, (E)-6-((1-Amino-5-(4-(2-cyanovinyl)-2,6-dimethylphenyl)isoquinolin-3-yl)amino)pyridazine-3-carbonitrile], the EC50 in series [1] worked out at 36.4 nM; in series [2], 174 nM; in the series on HIV-1 HBX2 (wild type) (setting [3]), 17 nM; with HIV-1 HBX2 (wild type) (setting [4]), 22.7 nM. For the same compound, the “FC against mutant K103N” value in series [1] turned out to be 1.6. For the same compound, the “FC against mutant Y181C” value in series [2] is recorded as 7.7.

Turning to `Cc1cc(/C=C/C#N)cc(C)c1-c1cccc2c(N)nc(Nc3ncc(C#N)cn3)cc12` [Compound 1, (E)-2-((1-Amino-5-(4-(2-cyanovinyl)-2,6-dimethylphenyl)isoquinolin-3-yl)amino)pyrimidine-5-carbonitrile], the EC50 in series [1] amounted to 6.4 nM; in series [2] it was 51.6 nM; in the series with HIV-1 HBX2 (wild type) (setting [3]), 6.4 nM; with HIV-1 HBX2 (wild type) (setting [4]), 4.5 nM. Besides, the “FC against mutant K103N” value in series [1] is 1.4. For the same compound, in series [2], the “FC against mutant Y181C” value is on record as 11.5.
